Structure (SMILES) | melting point [°C]
COC(=O)c1ccccc1C(=O)NC(C)(C)C#N | 100 to 101
Cc1cc2c(cc1F)C(C)(C)CCC2(C)C | 90 to 91.8
CC(Cl)c1nc2c(C(F)(F)F)cccc2c(O)c1C(=O)Nc1nccs1 (configuration not stated) | 190 to 192
CCOC(=O)C(=CC=C(O)C(=O)O)Sc1ccccc1 | 172
COc1ccc(CCNc2ncnc3occ(C)c23)cc1 | 184
CCC(CC)c1[nH]c(C)c(C(C)=O)c1C | 186 to 189
CCc1cc(=O)n2c3c(cc(C(O)(C(F)(F)F)C(F)(F)F)cc13)CCC2 | 209 to 210
CCN(C)C(N)=C(C#N)C(N)=S | 121 to 124
N=C(NN)c1cccc(Cc2c[nH]cn2)c1O | 188
COc1cc2c(c(-c3cccc(Cl)c3Cl)c1)OC(CN)C2 (configuration not stated) | 159 to 161
CC(=O)OCc1ncc2n1-c1ccc(Cl)cc1C(c1ccccc1F)=NC2 | 151 to 152
Cc1c(-c2cccn2C)c(N2CC[C@H](N(C)C)C2)c2oc(C3CC3)nc2c1C#N | 127 to 128
CC(C)(CC(=O)O)CC(=O)NC1(C(=O)NCCCCNc2ncccn2)Cc2ccccc2C1 | 70 to 83
Nc1cc(OCCOCP(=O)(O)O)nc(N)n1 | 279
OC[C@@H]1C[C@@H](C2CCCCC2)CN1 | 98 to 99
CCCCCCCCS(=O)(=O)NCCC(=O)O | 122
C=C(C)C(=O)OCCCCOc1ccc(C(=O)Cl)cc1 | 30 to 31
O=C1COC2(CCN(CCC3COc4ccccc4O3)CC2)CN1 (configuration not stated) | 139 to 140

Structure (SMILES) | melting point [°C]
CC(c1ccco1)N(O)C(N)=O (configuration not stated) | 143 to 144
COc1c(Cl)cc(F)c(I)c1F | 62 to 64
NC(=O)c1c(C(F)(F)F)ccc(Cl)c1F | 123 to 125
O=C1CCCCC1C(C[N+](=O)[O-])c1ccc(C(F)(F)F)cc1 (racemic) | 107 to 108
Sc1nnnn1CCCc1ccccc1 | 75 to 76
Nc1nnc(-c2ccccc2OC(F)(F)C(F)F)c(N)n1 | 158 to 160
O=C(/C=C/C=C/c1ccccc1)NCCCCC(=O)NO | 168 to 170
Cc1nc(Cl)c(C#N)c(NCc2cccnc2)n1 | 165 to 167
ClCc1cc(I)cc(I)c1I | 97 to 98
Cc1cc(C)c2c(=O)n(CC(=O)N3CCOCC3)sc2n1 | 200 to 203
Clc1nc(Cl)c2sc(Cl)nc2n1 | 121 to 122
CN1N=C(c2ccc(F)cc2)c2cc3nsnc3cc2CS1(=O)=O | 272 to 275
O=C(C=Cc1ccsc1)Nc1nnn[nH]1 | 273 to 274
CCOC(=O)C1=CC(CF)(CF)Oc2ccc([N+](=O)[O-])cc21 | 96 to 98
COC(=O)c1ccc(Cn2cc(C=C3C(=O)NC(=O)NC3=O)c3ccccc32)cc1 | > 300
CC(=O)n1nc(-c2nc3ccccc3o2)oc1=O | 231 to 232
CN(C)c1ccc([N+](=O)[O-])c(CO)c1 | 138 to 139
CSc1nc2ccc(CCc3nc4cc(C)ccn4c3C)cc2o1 | 106 to 107

Continued, values first:

melting point [°C] | Structure (SMILES)
203 to 204 | Cc1ccc(-c2ccc3c(c2)C=C(C(=O)Nc2ccc(CN4CCCCC4)cc2)CCS3)cc1
156 | Cc1cccc(NC(=O)NCC(=O)N2[C@@H](C(=O)OC(C)(C)C)CC[C@H]2c2ccccc2)c1 (racemic)
263 to 266 | CC(C)(O)c1ccc(-c2cnc3[nH]c(=O)n(CCC4CCOCC4)c3n2)cc1
155 to 157 | CC(=O)N1CCN(CC(=O)Nc2ccc3[nH]c(=O)c4cccc5c4c3c2C5)CC1
118 to 120 | Cc1cnc(NC(=O)Nc2ccc(N3CCN(C(=O)Nc4ccc(OCCO)cc4C(F)(F)F)CC3)cc2)s1
193 to 195 | O=C1N(c2ccc(Cl)cc2)c2ncccc2C1(Cc1ccncc1)Cc1ccccn1 (configuration not stated)
186 | Cc1ccc(OCn2cc(Cl)cnc2=O)cc1
194 | O=C(NN1CCCCC1)c1nn(-c2ccc(Cl)cc2Cl)c(-c2ccc(Cl)cc2)c1COCCO
309 to 311 | O=C(O)c1cnn2ccc(-c3ccc(Cl)cc3)nc12
180 to 182 | Brc1ccccc1Oc1nc2ccccc2n2cncc12
64 to 66 | CCOC(=O)Cn1c(-c2ccccc2Cl)nc2cccnc21
135 to 136 | CCc1nc2c(n1C(CC)CC)C(=O)N(C)C(C)N2c1ccc(Cl)cc1Cl (configuration not stated)
236 to 237 | Cc1cccc2c1nc(-c1cccc(Cl)c1[N+](=O)[O-])n2CC(O)C(C)(C)C (configuration not stated)
89 to 91 | CCOC(=O)Oc1ccc(S(=O)(=O)N2c3cc(F)c(F)cc3-n3cccc3C2C)cc1 (configuration not stated)
221 to 223 | CCOc1ccc(C(=O)Nc2c(Cl)cncc2Cl)c2c3cc(Cl)ccc3n(Cc3ccccc3)c12
144 to 146 | Cn1c(-c2ccc(-c3ccco3)cc2)cnc1[C@H](Cc1ccccn1)N(C=O)c1cc2cc(Cl)ccc2o1
229 to 230 | CN1CCN(c2ccc(Nc3ncc4ccc(-c5cccc(CN(C)S(C)(=O)=O)c5)n4n3)cc2)CC1
168 to 169 | O=C(CCCCCCC1=CC(O)CC1=O)Oc1ccc(NC(=O)c2ccccc2)cc1 (configuration not stated)

melting point [°C] | Structure (SMILES)
235 to 237 | Nc1c(-c2ccccc2O)c2ccccc2[nH]c1=O
61 to 63 | COc1ccc(CCOc2ccc(C(=O)N/C(=C\c3ccc(SC)cc3)C(=O)NCCO)cc2)cc1
152 to 155 | CN(C)c1ccc(N(C)C(=O)Cn2c(-c3ccc(Cl)cc3)nc3cccnc32)cc1
154 | CCCc1nc2ccnn2cc1Cc1ccc(-c2ccccc2C#N)cc1
200 | CC(C)OCC(=O)CC1c2ccccc2C(=O)N1c1ccc2ccc(Cl)nc2n1 (configuration not stated)
82 to 83 | O=S(=O)(c1ccccc1)c1ncc(C(F)(F)F)cc1F
137 | CCOc1ccc2c(c1)C(C)(c1ccccc1Cl)C(=O)N2S(=O)(=O)c1ccc(NC(=O)N(CC)CC)cc1OC (configuration not stated)
182 to 184 | N#Cc1c(N2CCCCC2)cc(-c2ccc3ccccc3c2)c2c1C(=O)c1ccccc1-2
84 | O=c1c2ccccc2c(-c2ccccc2)cn1CCCO
257 to 258 | Cn1cnc(COc2nn3c(-c4cnccn4)nnc3cc2-c2ccccc2)n1
112 to 116 | COc1cc(OCc2ccccn2)ccc1/C=C/c1cc(/C=C/c2c[nH]c3ccccc23)n[nH]1
150 | Cn1c(=O)cc(-c2cccc(Cl)c2)c2cc(C(O)c3cncn3Cc3ccc(C#N)cc3)ccc21 (configuration not stated)
145 to 156 | N#Cc1c(N2CCN(C(=O)c3cnccn3)CC2)c2ccccc2n(Cc2ccc(F)cc2)c1=O
295 to 297 | CCCOc1cc(Br)ccc1-c1nc2cc3ncn(Cc4ccc(F)cc4)c3cc2c(=O)[nH]1
146 | COCn1ccnc1C(O)(c1ccc(Cl)cc1Cl)c1ccc(Cl)cc1Cl
196 to 197 | CC(=O)NCCNc1nc(-c2ccccc2)nc2[nH]c(COc3ccccc3)cc12
77 to 79 | C=C=Cn1c(C)c(C)c2cnnc(OCc3ccccc3)c21
192 | Cn1ncnc1COc1nn2c(-c3ccccc3F)nncc2c1-c1ccc(F)cc1
